The record followed here is patent publication US8575116B1, “Polyacetylenic compounds for protecting against pancreatic islet atrophy” (Academia Sinica, priority 2010, dated 2013).

Assay [1] concerns db/db mice. Description: Prophylaxis of diabetes in diabetes-free db/db mice. Format: in vivo, mouse. The conditions noted are these: 0.5 mgkg^−1 daily for 4 weeks, diabetes-free db/db mice aged 4 weeks. As to the method: FIGS. 2A-B show the prophylactic effect of cytopiloyne in db/db mice. […] Postprandial blood glucose levels in these mice were measured. (B) Blood insulin levels from the mice of […] were measured. Results from 3 independent experiments are expressed as mean±SEM, and P<0.05 was considered to be statistically significant (*).
After 0.5 h, the levels of postprandial blood sugar and insulin from the mice were monitored for additional 4 h. For continued administration, diabetic db/db males were grouped and tube-fed with vehicle, cytopiloyne (0.5 or 2.5 mgkg^−1 day^−1) or glimepiride (2.5 mg kg^−1 day^−1) for the indicated time, while levels of blood sugar, insulin, and glycosylated HbA1c, and glucose tolerance in these mice were determined. To evaluate the prophylaxis of diabetes, diabetes-free db/db mice at 4 weeks of age were tube-fed with vehicle or cytopiloyne (CP, 0.5 mgkg^−1), once a day, for 4 weeks. Unless indicated otherwise, the mice were fasted for 16 h, then Postprandial blood glucose and insulin in these mice were measured.

The subject of assay [2] is HIT-T15 cells. The assay is described as follows: Insulin secretion of β-cell line with PMA, GF109203X and cytopiloyne (ELISA). It is filed as cell-based, rat. The conditions noted are these: FIG. 6A; glucose 16.7 mM. For orientation: ELISA stands for enzyme-linked immunosorbent assay.

Take `CC#CC#CC#CC#CCCC(CO)O[C@@H]1O[C@H](CO)[C@@H](O)[C@H](O)[C@H]1O` (stereo partly drawn) [cytopiloyne, 2-β-D-glucopyranosyloxy-1-hydroxytrideca-5,7,9,11-tetrayne]: in assay [1], the “blood sugar control in prophylactic treatment” value is recorded as “control blood sugar in these mice much better than the control” and the “prevention of T2D” value is listed as “failed to prevent the disease”. Also, the “insulin secretion in β-cell line” value in assay [2] is given as “stimulated insulin secretion”.
